This note sets out measurements from article PMC11292843 (ACS Omega, 2024).

For assay [1], the target named is T1, hPTP1B1–400 (Homo sapiens, UniProt P18031).
T1 sequence (P18031 1-400): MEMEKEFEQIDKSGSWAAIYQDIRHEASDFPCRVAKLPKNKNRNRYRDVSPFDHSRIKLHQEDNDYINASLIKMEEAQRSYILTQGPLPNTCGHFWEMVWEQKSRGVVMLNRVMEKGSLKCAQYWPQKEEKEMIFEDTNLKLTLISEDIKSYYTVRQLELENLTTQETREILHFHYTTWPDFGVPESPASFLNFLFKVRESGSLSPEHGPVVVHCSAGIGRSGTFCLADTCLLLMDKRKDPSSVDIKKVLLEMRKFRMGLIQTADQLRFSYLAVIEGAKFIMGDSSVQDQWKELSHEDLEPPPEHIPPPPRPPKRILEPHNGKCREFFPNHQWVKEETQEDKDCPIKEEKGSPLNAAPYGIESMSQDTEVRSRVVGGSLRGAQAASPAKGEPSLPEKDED
The assay can be described thus: PTP1B inhibition assay (pNPP, spectrocolorimetric), long form. Conditions: IC50 ± SD hPTP1B1–400, hPTP1B 66 nM, pNPP 0.5 mM, 37 °C, 15 min.

The target of assay [2] is T1, hPTP1B1–400. The experiment in a line: Enzyme kinetics (Lineweaver–Burk, varying pNPP). Conditions: for inhibition mechanism: hPTP1B1–400, best fit of inhibition models; for Km / Vmax: hPTP1B1–400, pNPP 0.1–0.5 mM.
A further assay addresses T2, hPTP1B1–285 (Homo sapiens, UniProt P18031).
T2 sequence (P18031 1-285): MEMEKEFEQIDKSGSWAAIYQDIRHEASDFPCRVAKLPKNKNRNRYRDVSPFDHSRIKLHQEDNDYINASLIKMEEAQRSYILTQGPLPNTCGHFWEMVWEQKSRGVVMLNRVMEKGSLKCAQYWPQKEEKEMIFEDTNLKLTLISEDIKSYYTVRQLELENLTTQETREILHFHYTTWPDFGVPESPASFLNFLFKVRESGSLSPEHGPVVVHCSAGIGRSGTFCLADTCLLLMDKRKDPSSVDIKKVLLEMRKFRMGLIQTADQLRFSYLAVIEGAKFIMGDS
The assay can be described thus: PTP1B inhibition assay (pNPP, spectrocolorimetric), short form.

Where only a bound is given, the exact number is not on record here.

Turning to `C[C@H](CCC(=O)O)C1CCC2C3CC[C@@H]4C[C@](O)(CNCc5ccccc5)CC[C@]4(C)C3CC[C@@]21C` (stereo partly drawn) [compound 6a, N-Benzyl-1-((3S,5R,10S,13R)-17-((R)-4-carboxybutan-2-yl)-3-hydroxy-10,13-dimethylhexadecahydro-1H-cyclopenta[a]phenanthren-3-yl)methanaminium Chloride], the midpoint of inhibition against hPTP1B1–400 [1], the IC50, lay at 33.1 ± 2.7 µM.
As to `C[C@H](CCC(=O)O)C1CCC2C3CC[C@@H]4C[C@](O)(CNCc5ccc(O)cc5)CC[C@]4(C)C3CC[C@@]21C` (stereo partly drawn) [compound 6b, 1-((3S,5R,10S,13R)-17-((R)-4-carboxybutan-2-yl)-3-hydroxy-10,13-dimethylhexadecahydro-1H-cyclopenta[a]phenanthren-3-yl)-N-(4-hydroxybenzyl)methanaminium Chloride], inhibition against hPTP1B1–400 [1] was half-maximal at 26.9 ± 3.5 µM (IC50).
As to `COc1cccc(CNC[C@]2(O)CC[C@]3(C)C4CC[C@@]5(C)C(CCC5[C@H](C)CCC(=O)O)C4CC[C@@H]3C2)c1.Cl` (stereo partly drawn) [compound 6c, 1-((3S,5R,10S,13R)-17-((R)-4-carboxybutan-2-yl)-3-hydroxy-10,13-dimethylhexadecahydro-1H-cyclopenta[a]phenanthren-3-yl)-N-(3-methoxybenzyl)methanaminium Chloride], at hPTP1B1–400 [2], the Ki – broadly, the equilibrium dissociation constant of an inhibitor or competing ligand from its target – came to 4 ± 0.2 µM; the inhibition mechanism result was “Uncompetitive”; the Km (in general, the substrate concentration at which the rate is half of its maximum) came to 380 ± 20 µM; the Vmax – broadly, the rate approached at saturating substrate – was determined as 0.64 ± 0.02 mM/min. Moreover, half-maximal inhibition on hPTP1B1–400 [1] (IC50) was put at 10.5 ± 0.2 µM.
As to `COc1ccc(CNC[C@]2(O)CC[C@]3(C)C4CC[C@@]5(C)C(CCC5[C@H](C)CCC(=O)O)C4CC[C@@H]3C2)cc1.Cl` (stereo partly drawn) [compound 6d, 1-((3S,5R,10S,13R)-17-((R)-4-carboxybutan-2-yl)-3-hydroxy-10,13-dimethylhexadecahydro-1H-cyclopenta[a]phenanthren-3-yl)-N-(4-methoxybenzyl)methanaminium Chloride], at hPTP1B1–400 [2], the affinity, expressed as Ki, was 19.7 ± 2.6 µM; the inhibition mechanism entry is reported as “Uncompetitive”; the Michaelis-Menten constant (Km) was determined as 780 ± 90 µM; the Vmax is 1.10 ± 0.09 mM/min. The IC50 (as a rule, the concentration that inhibits the measured activity by half) on hPTP1B1–400 [1] turned out to be 26.6 ± 0.9 µM.
Turning to `Cc1cccc(CNC[C@]2(O)CC[C@]3(C)C4CC[C@@]5(C)C(CCC5[C@H](C)CCC(=O)O)C4CC[C@@H]3C2)c1` (stereo partly drawn) [compound 6e, 1-((3S,5R,10S,13R)-17-((R)-4-carboxybutan-2-yl)-3-hydroxy-10,13-dimethylhexadecahydro-1H-cyclopenta[a]phenanthren-3-yl)-N-(3-methylbenzyl)methanaminium Chloride], the IC50 was determined as 53.8 ± 2.7 µM against hPTP1B1–285 and 16.3 ± 0.5 µM on hPTP1B1–400 [1].
For `Cc1ccc(CNC[C@]2(O)CC[C@]3(C)C4CC[C@@]5(C)C(CCC5[C@H](C)CCC(=O)O)C4CC[C@@H]3C2)cc1` (stereo partly drawn) [compound 6f, 1-((3S,5R,10S,13R)-17-((R)-4-carboxybutan-2-yl)-3-hydroxy-10,13-dimethylhexadecahydro-1H-cyclopenta[a]phenanthren-3-yl)-N-(4-methylbenzyl)methanaminium Chloride], the IC50 came out at 46 ± 1.7 µM at hPTP1B1–285 and 34.3 ± 0.5 µM at hPTP1B1–400 [1].
Molecule `C[C@H](CCC(=O)O)C1CCC2C3CC[C@@H]4C[C@](O)(CNCc5cccc(F)c5)CC[C@]4(C)C3CC[C@@]21C` (stereo partly drawn) [compound 6g, 1-((3S,5R,10S,13R)-17-((R)-4-carboxybutan-2-yl)-3-hydroxy-10,13-dimethylhexadecahydro-1H-cyclopenta[a]phenanthren-3-yl)-N-(3-fluorobenzyl)methanaminium Chloride] showed an IC50 on hPTP1B1–400 [1] of over 100 µM.
Still for that read-out and setting: with `C[C@H](CCC(=O)O)C1CCC2C3CC[C@@H]4C[C@](O)(CNCc5ccc(F)cc5)CC[C@]4(C)C3CC[C@@]21C` (stereo partly drawn) [compound 6h, 1-((3S,5R,10S,13R)-17-((R)-4-carboxybutan-2-yl)-3-hydroxy-10,13-dimethylhexadecahydro-1H-cyclopenta[a]phenanthren-3-yl)-N-(4-fluorobenzyl)methanaminium Chloride] the figure was over 100 µM.
The molecule `C[C@H](CCC(=O)O)C1CCC2C3CC[C@@H]4C[C@](O)(CNCc5cccc(Cl)c5)CC[C@]4(C)C3CC[C@@]21C` (stereo partly drawn) [compound 6i, 1-((3S,5R,10S,13R)-17-((R)-4-carboxybutan-2-yl)-3-hydroxy-10,13-dimethylhexadecahydro-1H-cyclopenta[a]phenanthren-3-yl)-N-(3-chlorobenzyl)methanaminium Chloride] yielded an IC50 on hPTP1B1–400 [1] of over 100 µM.
For `C[C@H](CCC(=O)O)C1CCC2C3CC[C@@H]4C[C@](O)(CNCc5ccc(Cl)cc5)CC[C@]4(C)C3CC[C@@]21C` (stereo partly drawn) [compound 6j, 1-((3S,5R,10S,13R)-17-((R)-4-carboxybutan-2-yl)-3-hydroxy-10,13-dimethylhexadecahydro-1H-cyclopenta[a]phenanthren-3-yl)-N-(4-chlorobenzyl)methanaminium Chloride], on hPTP1B1–400 [1], the IC50 is over 100 µM.
In the case of `C[C@H](CCC(=O)O)C1CCC2C3CC[C@@H]4C[C@](O)(CNCc5cccc(C(=O)O)c5)CC[C@]4(C)C3CC[C@@]21C.Cl` (stereo partly drawn) [compound 6k, N-(3-carboxybenzyl)-1-((3S,5R,10S,13R)-17-((R)-4-carboxybutan-2-yl)-3-hydroxy-10,13-dimethylhexadecahydro-1H-cyclopenta[a]phenanthren-3-Yl)methanaminium Chloride], at hPTP1B1–400 [2], the Ki stood at 11 ± 1 µM, the inhibition mechanism entry is on record as “Uncompetitive”, the Km was found to be 480 ± 60 µM and the Vmax was 0.80 ± 0.06 mM/min. This molecule had a half-maximal inhibitory concentration (IC50) at hPTP1B1–400 [1] of 32.3 ± 1.2 µM.
Regarding `C[C@H](CCC(=O)O)C1CCC2C3CC[C@@H]4C[C@](O)(CNCc5ccc(C(=O)O)cc5)CC[C@]4(C)C3CC[C@@]21C.Cl` (stereo partly drawn) [compound 6l, N-(4-carboxybenzyl)-1-((3S,5R,10S,13R)-17-((R)-4-carboxybutan-2-yl)-3-hydroxy-10,13-dimethylhexadecahydro-1H-cyclopenta[a]phenanthren-3-yl)methanaminium Chloride], at hPTP1B1–400 [2], the inhibition constant Ki is 10.7 ± 1.6 µM, the inhibition mechanism result was “Uncompetitive”, the Km was found to be 950 ± 150 µM and the Vmax worked out at 1.41 ± 0.17 mM/min. For the same molecule, the IC50 on hPTP1B1–400 [1] turned out to be 12.6 ± 0.7 µM.
